Source: US9493775B2, “Inhibition of the glycine cleavage system for treatment of cancer” (Whitehead Institute for Biomedical Research, priority 2012, dated 2016)

Legend:
[1] = target: T protein (Homo sapiens, UniProt P48728); conditions: cited from earlier work
[2] = target: T1, glycine cleavage system (GCS) (Homo sapiens, UniProt P23378); conditions: cited from earlier work
T1 sequence (P23378 36-1020): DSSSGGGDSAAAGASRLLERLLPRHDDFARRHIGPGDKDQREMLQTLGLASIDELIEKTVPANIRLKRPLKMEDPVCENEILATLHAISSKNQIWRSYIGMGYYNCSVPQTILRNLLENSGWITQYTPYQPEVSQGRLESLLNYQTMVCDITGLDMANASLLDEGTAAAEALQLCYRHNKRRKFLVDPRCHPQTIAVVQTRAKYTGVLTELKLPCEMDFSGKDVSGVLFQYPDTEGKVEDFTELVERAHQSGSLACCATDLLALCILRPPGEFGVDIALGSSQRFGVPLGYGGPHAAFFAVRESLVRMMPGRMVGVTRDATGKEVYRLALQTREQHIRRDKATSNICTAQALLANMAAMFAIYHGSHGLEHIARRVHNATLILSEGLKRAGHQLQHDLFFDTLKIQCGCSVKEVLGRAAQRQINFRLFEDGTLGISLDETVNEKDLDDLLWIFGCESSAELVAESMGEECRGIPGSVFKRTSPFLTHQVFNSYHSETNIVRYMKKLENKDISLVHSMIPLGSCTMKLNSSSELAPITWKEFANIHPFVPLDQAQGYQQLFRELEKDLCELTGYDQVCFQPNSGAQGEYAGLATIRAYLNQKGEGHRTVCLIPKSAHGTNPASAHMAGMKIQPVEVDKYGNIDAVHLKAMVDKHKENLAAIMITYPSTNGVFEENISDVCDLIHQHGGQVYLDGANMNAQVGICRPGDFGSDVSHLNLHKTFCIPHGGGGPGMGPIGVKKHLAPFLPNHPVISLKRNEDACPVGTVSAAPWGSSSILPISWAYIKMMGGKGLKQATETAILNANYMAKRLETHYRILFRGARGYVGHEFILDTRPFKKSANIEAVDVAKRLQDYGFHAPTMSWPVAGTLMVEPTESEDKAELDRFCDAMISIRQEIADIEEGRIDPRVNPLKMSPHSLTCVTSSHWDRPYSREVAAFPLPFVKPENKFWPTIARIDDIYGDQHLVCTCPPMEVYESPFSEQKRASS

[3] = tested on: GLDC-knockdown-sensitive cells; assay: Cysteamine treatment, cell viability by ATP assay; assay type: cell-based; conditions: 1 mM, 4 days
Description: FIGS. 3A-3C. GLDC shRNA sensitive lines, but not insensitive lines, are also sensitive to pharmacological inhibition of the GCS, and to shRNA knockdown of another GCS component (GCSH). (A) Various cell lines were treated with 1 mM cysteamine for 4 days. […] (C) Various cells lines were infected with GS1, GS2, GS3, or GS4 shRNAs for 6 days. Cell viability was measured and data from multiple experiments is shown ±S.D. The blue line indicates cell viability for each cell line when infected with control (GFP) shRNA, which was set as 100%. Thus, data for each cell line is shown as a % relative to viability when infected with shGFP. For (A) and (C), asterisk indicates a statistically significant decrease in cell viability following cysteamine treatment relative to untreated (p<0.05). Red font indicates GLDC shRNA-sensitive lines, and blue font indicates insensitive lines.
We assessed the effect of treatment with cysteamine, an inhibitor of the GCS (9) on a number of the tumor cell lines that had been examined in the experiments described in Example 3. Cells were treated with cysteamine (1 mM) for 4 days, and cell viability was then assessed using an ATP assay.

[4] = tested on: P protein; conditions: cited from earlier work
[5] = tested on: glycine cleavage activity in the liver; conditions: administration to rats; cited from earlier work
[6] = patients with NKH; cited from earlier work

Chain of T protein (P48728 29-403): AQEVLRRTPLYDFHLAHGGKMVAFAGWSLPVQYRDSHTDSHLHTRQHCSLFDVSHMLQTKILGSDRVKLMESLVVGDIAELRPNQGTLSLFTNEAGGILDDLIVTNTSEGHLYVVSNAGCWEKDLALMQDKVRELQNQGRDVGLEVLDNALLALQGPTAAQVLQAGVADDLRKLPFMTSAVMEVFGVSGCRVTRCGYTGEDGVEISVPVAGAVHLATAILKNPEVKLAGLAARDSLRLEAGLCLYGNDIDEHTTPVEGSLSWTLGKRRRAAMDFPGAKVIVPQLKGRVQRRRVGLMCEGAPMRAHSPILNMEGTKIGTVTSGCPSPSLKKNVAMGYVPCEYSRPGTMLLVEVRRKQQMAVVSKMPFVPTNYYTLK

SMILES: CN1c2c(nc(N)[nH]c2=O)NCC1CNc1ccc(C(=O)N[C@@H](CCC(=O)O)C(=O)O)cc1 (stereo partly drawn) [5-methyltetrahydrofolate]
- inhibition of T protein [1]: inhibits T protein

SMILES: NCCS [cysteamine, 2-aminoethanethiol]
- inhibition of the GCS [2]: known inhibitor of the GCS
- cell viability (ATP assay) [3]: impaired viability

SMILES: C#CCN [propargylamine, 3-Amino-1-propyne]
- inhibition of the GCS [2]: reported to inhibit the GCS

SMILES: N#CCN [aminoacetonitrile]
- inhibition of the GCS [2]: reported to inhibit the GCS

SMILES: NOCC(=O)O [carboxymethoxylamine]
- inhibition of P protein [4]: reported to inhibit P protein

SMILES: CCCC(CCC)C(=O)O [valproic acid, 2-propylpentanoic acid]
- glycine cleavage activity in the liver [5]: inhibit glycine cleavage activity in the liver
- seizure frequency [6]: increase in seizure frequency
- P protein activity in vitro ([4]; in vitro): reduced
